Reference: paper PMC12238723, “Phase I Clinical Trial of CVL218, a Novel PARP1/2 Inhibitor, in Patients with Advanced Solid Tumors” (MedComm, 2025)

Tests used:
[1] = Plasma PK after multiple oral doses (Cycle 1 Day 28); format: in vivo, patients
Procedure: The period during which patients received a single dose is designated as cycle 0 (C0), lasting 72 h. After this period, patients begin multiple dosing, referred to as cycle 1 (C1). An initial accelerated titration design was employed for the three lowest dose groups, and the “3+3” design was applied starting with the 300 mg BID cohort. […] Single-dose and multiple-dose PK parameters included C max, T max, elimination half-life (T 1/2), AUC0- t , AUC0-inf, oral clearance (CL/F), and apparent volume of distribution (V z/F) for CVL218. Tumor response was assessed per RECIST 1.1. ORR was defined as proportion of patients with a CR or PR on at least one visit, while DCR was defined as proportion of patients with a CR or PR or SD. PFS was defined as the time from the first dose of either drug to investigator assessed radiologic PD or to death of any cause. PFS would be censored at the time of last tumor assessment. Subjects who received at least one dose of CVL218 with postadministration safety records were included in safety analysis set. Subjects who received at least one dose of CVL218 with at least one evaluable PK parameter were included in PK analysis set. Per-protocol set were used for efficacy analysis. Descriptive statistics of safety were presented per CTCAE v5.0. The PK parameters T max and T 1/2 were shown as the median (min, max) and mean ± SD, respectively. A two-sided p < 0.05 was considered to indicate statistical significance. Statistical analysis was performed by using GraphPad prism 8.0.2 and R-4.3.3.

[2] = system: human ether‐a‐go‐go‐related gene channel; set-up: method as in PMID 27926532, PMID 36283983; details: cited from earlier work
[3] = multiple doses C1D28, 50mg BID, n 1
[4] = multiple doses C1D28, 100mg BID, n 1
[5] = multiple doses C1D28, 200mg BID, n 1
[6] = multiple doses C1D28, 350mg BID, n 4
[7] = multiple doses C1D28, 500mg BID, n 4
[8] = multiple doses C1D28, 600mg BID, n 4
[9] = multiple doses C1D28, 700mg BID, n 6
[10] = multiple doses C1D28, 850mg BID, n 5

## CNCc1ccc(-c2cc3cc(F)cc(C(N)=O)c3o2)cc1.Cl [CVL218]
[1]; [3]
  AUC0-24, Geometric Mean: 70.9 ng·h/mL
  AUC0-t, Geometric Mean: 77.9 ng·h/mL
  AUC_TAU, Mean: 70.9 ng·h/mL
  Cavgss, Mean: 5.91 ng/mL
  Cl/F, Geometric Mean: 705000.0 mL/h
  Cmax, Geometric Mean: 15.6 ng/mL
  Cminss, Mean: 0 ng/mL
  Vz/F, Geometric Mean: 6870000.0 mL
[1]; [4]
  AUC0-24, Geometric Mean: 822.0 ng·h/mL
  AUC0-t, Geometric Mean: 1930.0 ng·h/mL
  AUC_TAU, Mean: 822 ng·h/mL
  Cavgss, Mean: 68.5 ng/mL
  Cl/F, Geometric Mean: 122000.0 mL/h
  Cmax, Geometric Mean: 148.0 ng/mL
  Cminss, Mean: 38 ng/mL
  Vz/F, Geometric Mean: 1750000.0 mL
[1]; [5]
  AUC0-24, Geometric Mean: 808.0 ng·h/mL
  AUC0-t, Geometric Mean: 1360.0 ng·h/mL
  AUC_TAU, Mean: 808 ng·h/mL
  Cavgss, Mean: 67.3 ng/mL
  Cl/F, Geometric Mean: 248000.0 mL/h
  Cmax, Geometric Mean: 156.0 ng/mL
  Cminss, Mean: 28.6 ng/mL
  Vz/F, Geometric Mean: 4780000.0 mL
[1]; [6]
  AUC0-24, Geometric Mean: 2230.0 ng·h/mL
  AUC0-inf, Geometric Mean: 5860.0 ng·h/mL
  AUC0-t, Geometric Mean: 4750.0 ng·h/mL
  AUC_TAU, Mean: 2170 ng·h/mL
  Cavgss, Mean: 181 ng/mL
  Cl/F, Geometric Mean: 157000.0 mL/h
  Cmax, Geometric Mean: 313.0 ng/mL
  Cminss, Mean: 72.2 ng/mL
  T1/2, Mean: 5.4 h
  Vz/F, Geometric Mean: 1400000.0 mL
[1]; [7]
  AUC0-24, Geometric Mean: 3210.0 ng·h/mL
  AUC0-inf, Geometric Mean: 6920.0 ng·h/mL
  AUC0-t, Geometric Mean: 6830.0 ng·h/mL
  AUC_TAU, Mean: 3870 ng·h/mL
  Cavgss, Mean: 323 ng/mL
  Cl/F, Geometric Mean: 158500.0 mL/h
  Cmax, Geometric Mean: 562.5 ng/mL
  Cminss, Mean: 177 ng/mL
  T1/2, Mean: 4.1 h
  Vz/F, Geometric Mean: 1380000.0 mL
[1]; [8]
  AUC0-24, Geometric Mean: 1880.0 ng·h/mL
  AUC0-inf, Geometric Mean: 7700.0 ng·h/mL
  AUC0-t, Geometric Mean: 2560.0 ng·h/mL
  AUC_TAU, Mean: 2810 ng·h/mL
  Cavgss, Mean: 234 ng/mL
  Cl/F, Geometric Mean: 318000.0 mL/h
  Cmax, Geometric Mean: 311.0 ng/mL
  Cminss, Mean: 118 ng/mL
  T1/2, Mean: 5.1 h
  Vz/F, Geometric Mean: 2440000.0 mL
[1]; [9]
  AUC0-24, Geometric Mean: 3830.0 ng·h/mL
  AUC0-inf, Geometric Mean: 4170.0 ng·h/mL
  AUC0-t, Geometric Mean: 3830.0 ng·h/mL
  AUC_TAU, Mean: 4450 ng·h/mL
  Cavgss, Mean: 371 ng/mL
  Cl/F, Geometric Mean: 183000.0 mL/h
  Cmax, Geometric Mean: 660.0 ng/mL
  Cminss, Mean: 127 ng/mL
  T1/2, Mean: 3.9 h
  Vz/F, Geometric Mean: 1090000.0 mL
[1]; [10]
  AUC0-24, Geometric Mean: 5150.0 ng·h/mL
  AUC0-inf, Geometric Mean: 2940.0 ng·h/mL
  AUC0-t, Geometric Mean: 5150.0 ng·h/mL
  AUC_TAU, Mean: 5150 ng·h/mL
  Cavgss, Mean: 429 ng/mL
  Cl/F, Geometric Mean: 230000.0 mL/h
  Cmax, Geometric Mean: 776.0 ng/mL
  Cminss, Mean: 194 ng/mL
  T1/2, Mean: 4.4 h
  Vz/F, Geometric Mean: 1532500.0 mL
[1]; multiple doses, range over cohorts
  median Tmax: 1 to 3 h
[1]; multiple oral doses, range over cohorts
  mean half-life: 3.9 to 5.4 h
[1]; recommended dose of 700 mg BID
  median Tmax: 2 h
[2]
  inhibitory activity on the hERG channel: without inhibitory activity
